# Where “and” joins values, the source holds several entries; their conditions need not be identical. Equal entries are not always repeated. Where two headings read alike, the source gives them in different places.
# Tests used:
# P. falciparum Dd2-2D4 = assay: P. falciparum asexual blood stage (ABS) growth assay, SYBR Green, 72 h, wild-type parasites; type: cell-based, Plasmodium falciparum; conditions: Plasmodium falciparum, DD2; SI Fig 16b; values on -log scale; read-out: ABS - Dd2-2D4 (converted)
# PfcProRS = target: T1, PfcProRS (Plasmodium falciparum, UniProt Q8I5R7); type: binding; conditions: for dose-response signal (normalized), SI Fig 8: single replicates
# T1 construct: made in house; host or cells: E. coli SoluBL-21
# T1 sequence (Q8I5R7 249-746): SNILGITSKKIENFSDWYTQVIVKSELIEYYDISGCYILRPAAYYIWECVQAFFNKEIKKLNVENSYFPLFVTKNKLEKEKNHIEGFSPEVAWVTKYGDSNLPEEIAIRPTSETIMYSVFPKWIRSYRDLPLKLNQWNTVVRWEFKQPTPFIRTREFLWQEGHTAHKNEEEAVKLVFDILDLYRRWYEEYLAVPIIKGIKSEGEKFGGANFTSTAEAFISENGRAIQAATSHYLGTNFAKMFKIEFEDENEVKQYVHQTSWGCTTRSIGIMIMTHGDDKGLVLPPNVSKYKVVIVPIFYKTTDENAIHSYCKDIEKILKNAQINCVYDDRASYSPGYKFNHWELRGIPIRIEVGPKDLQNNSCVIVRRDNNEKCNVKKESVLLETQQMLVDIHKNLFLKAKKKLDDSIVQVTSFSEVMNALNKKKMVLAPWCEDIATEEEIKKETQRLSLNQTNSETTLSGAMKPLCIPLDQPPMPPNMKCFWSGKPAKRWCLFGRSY
# HsProRS = HsProRS (Homo sapiens, UniProt P07814); assay: TR-FRET ligand displacement assay with tracer MAT379 (CoraFluor-1-Halo and anti-His6 antibody formats); type: binding; design: made in house; host or cells: E. coli SoluBL-21; conditions: for TR-FRET dose-response, normalized signal (SI Fig 11): individual replicates
# Sequence of HsProRS (P07814 996-1512): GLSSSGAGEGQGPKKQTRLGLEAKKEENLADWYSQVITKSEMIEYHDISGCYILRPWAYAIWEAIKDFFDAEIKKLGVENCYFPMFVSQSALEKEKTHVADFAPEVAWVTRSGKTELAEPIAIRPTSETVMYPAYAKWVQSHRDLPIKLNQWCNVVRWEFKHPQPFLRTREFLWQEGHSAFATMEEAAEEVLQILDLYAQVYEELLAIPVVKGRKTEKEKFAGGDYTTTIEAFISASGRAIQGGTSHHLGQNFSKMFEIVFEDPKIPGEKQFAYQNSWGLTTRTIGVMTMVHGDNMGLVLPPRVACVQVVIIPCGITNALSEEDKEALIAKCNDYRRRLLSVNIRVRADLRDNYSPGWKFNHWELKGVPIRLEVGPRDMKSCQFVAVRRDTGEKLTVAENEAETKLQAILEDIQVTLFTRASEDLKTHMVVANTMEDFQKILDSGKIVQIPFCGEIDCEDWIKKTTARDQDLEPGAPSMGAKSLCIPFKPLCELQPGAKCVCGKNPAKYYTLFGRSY
compound,measurement,setting,value
O=C(NC1Cc2ccccc2C1)c1nccnc1NC(=O)N1CCC(CCO)CC1 [compound 12],EC50,P. falciparum Dd2-2D4,153 nM
same,"dose-response signal (normalized), SI Fig 8",PfcProRS; Log[inhibitor] (M) -5.000,1.96E-01 and 6.39E-02 and 9.88E-02
same,"dose-response signal (normalized), SI Fig 8",PfcProRS; Log[inhibitor] (M) -5.301,1.70E-01 and 1.45E-01 and 2.26E-01
same,"dose-response signal (normalized), SI Fig 8",PfcProRS; Log[inhibitor] (M) -5.601,3.61E-01 and 2.68E-01 and 3.67E-01
same,"dose-response signal (normalized), SI Fig 8",PfcProRS; Log[inhibitor] (M) -5.904,5.30E-01 and 5.32E-01 and 5.86E-01
same,"dose-response signal (normalized), SI Fig 8",PfcProRS; Log[inhibitor] (M) -6.208,7.40E-01 and 8.32E-01 and 8.18E-01
same,"dose-response signal (normalized), SI Fig 8",PfcProRS; Log[inhibitor] (M) -6.509,9.11E-01 and 8.45E-01 and 9.67E-01
same,"dose-response signal (normalized), SI Fig 8",PfcProRS; Log[inhibitor] (M) -6.796,1.07E+00 and 9.35E-01 and 8.42E-01
same,"dose-response signal (normalized), SI Fig 8",PfcProRS; Log[inhibitor] (M) -7.108,1.04E+00 and 9.91E-01 and 9.07E-01
same,"dose-response signal (normalized), SI Fig 8",PfcProRS; Log[inhibitor] (M) -7.409,1.05E+00 and 1.07E+00 and 9.30E-01
same,"dose-response signal (normalized), SI Fig 8",PfcProRS; Log[inhibitor] (M) -7.710,9.50E-01 and 9.05E-01 and 1.01E+00
same,"dose-response signal (normalized), SI Fig 8",PfcProRS; Log[inhibitor] (M) -8.000,1.00E+00 and 9.33E-01 and 9.19E-01
same,"dose-response signal (normalized), SI Fig 8",PfcProRS; Log[inhibitor] (M) -8.301,1.00E+00 and 9.74E-01 and 1.08E+00
same,"dose-response signal (normalized), SI Fig 8",PfcProRS; Log[inhibitor] (M) -8.602,9.86E-01 and 9.74E-01 and 9.65E-01
same,"dose-response signal (normalized), SI Fig 8",PfcProRS; Log[inhibitor] (M) -9.000,9.41E-01 and 9.53E-01 and 9.73E-01
same,"dose-response signal (normalized), SI Fig 8",PfcProRS; Log[inhibitor] (M) -9.301,9.78E-01 and 8.31E-01 and 1.01E+00
same,PfcProRS -- best Kd,"PfcProRS; SI Fig 16a, values on -log scale",6.470
same,Kd,"HsProRS; HsProRS (KD [nM]) mean, no added proline/ATP (-)",687 nM
same,Kd,"HsProRS; HsProRS - best Kd, SI Fig 16a, values on -log scale",150 nM
same,"normalized TR-FRET ligand displacement signal, dose-response replicates (SI Fig 6)",HsProRS; Log[inhibitor] (M) -5.000,1.59E-01 and 1.60E-01 and 2.09E-01
same,"TR-FRET dose-response, normalized signal (SI Fig 11)",HsProRS; Log[inhibitor] (M) -5.000,3.68E-02 (2×) and 3.81E-02
same,"normalized TR-FRET ligand displacement signal, dose-response replicates (SI Fig 6)",HsProRS; Log[inhibitor] (M) -5.301,3.23E-01 and 2.51E-01 and 1.66E-01
same,"TR-FRET dose-response, normalized signal (SI Fig 11)",HsProRS; Log[inhibitor] (M) -5.301,1.17E-01 and 1.16E-01 and 1.37E-01
same,"normalized TR-FRET ligand displacement signal, dose-response replicates (SI Fig 6)",HsProRS; Log[inhibitor] (M) -5.601,4.15E-01 (2×) and 3.76E-01
same,"TR-FRET dose-response, normalized signal (SI Fig 11)",HsProRS; Log[inhibitor] (M) -5.601,3.29E-01 and 2.78E-01 and 2.37E-01
same,"normalized TR-FRET ligand displacement signal, dose-response replicates (SI Fig 6)",HsProRS; Log[inhibitor] (M) -5.904,6.44E-01 and 5.20E-01 and 5.13E-01
same,"TR-FRET dose-response, normalized signal (SI Fig 11)",HsProRS; Log[inhibitor] (M) -5.904,4.76E-01 and 4.29E-01 and 4.93E-01
same,"normalized TR-FRET ligand displacement signal, dose-response replicates (SI Fig 6)",HsProRS; Log[inhibitor] (M) -6.208,7.49E-01 and 7.87E-01 and 7.20E-01
same,"TR-FRET dose-response, normalized signal (SI Fig 11)",HsProRS; Log[inhibitor] (M) -6.208,5.93E-01 and 6.01E-01 and 5.70E-01
same,"normalized TR-FRET ligand displacement signal, dose-response replicates (SI Fig 6)",HsProRS; Log[inhibitor] (M) -6.509,9.12E-01 and 8.62E-01 and 8.67E-01
same,"TR-FRET dose-response, normalized signal (SI Fig 11)",HsProRS; Log[inhibitor] (M) -6.509,7.07E-01 and 6.82E-01 and 7.18E-01
same,"normalized TR-FRET ligand displacement signal, dose-response replicates (SI Fig 6)",HsProRS; Log[inhibitor] (M) -6.796,1.06E+00 and 1.12E+00 and 9.20E-01
same,"TR-FRET dose-response, normalized signal (SI Fig 11)",HsProRS; Log[inhibitor] (M) -6.796,7.97E-01 and 7.75E-01 and 7.79E-01
same,"normalized TR-FRET ligand displacement signal, dose-response replicates (SI Fig 6)",HsProRS; Log[inhibitor] (M) -7.108,1.07E+00 and 1.02E+00 and 1.12E+00
same,"TR-FRET dose-response, normalized signal (SI Fig 11)",HsProRS; Log[inhibitor] (M) -7.108,8.56E-01 and 8.75E-01 and 8.83E-01
same,"normalized TR-FRET ligand displacement signal, dose-response replicates (SI Fig 6)",HsProRS; Log[inhibitor] (M) -7.409,1.02E+00 and 1.06E+00 (2×)
same,"TR-FRET dose-response, normalized signal (SI Fig 11)",HsProRS; Log[inhibitor] (M) -7.409,8.85E-01 and 8.47E-01 and 8.63E-01
same,"normalized TR-FRET ligand displacement signal, dose-response replicates (SI Fig 6)",HsProRS; Log[inhibitor] (M) -7.710,9.85E-01 and 1.01E+00 and 9.72E-01
same,"TR-FRET dose-response, normalized signal (SI Fig 11)",HsProRS; Log[inhibitor] (M) -7.710,8.80E-01 and 8.88E-01 and 8.59E-01
same,"normalized TR-FRET ligand displacement signal, dose-response replicates (SI Fig 6)",HsProRS; Log[inhibitor] (M) -8.000,9.44E-01 and 9.64E-01 and 9.22E-01
same,"TR-FRET dose-response, normalized signal (SI Fig 11)",HsProRS; Log[inhibitor] (M) -8.000,9.20E-01 and 9.38E-01 and 9.24E-01
same,"normalized TR-FRET ligand displacement signal, dose-response replicates (SI Fig 6)",HsProRS; Log[inhibitor] (M) -8.301,9.32E-01 and 1.05E+00 and 8.26E-01
same,"TR-FRET dose-response, normalized signal (SI Fig 11)",HsProRS; Log[inhibitor] (M) -8.301,8.82E-01 and 8.99E-01 and 9.20E-01
same,"normalized TR-FRET ligand displacement signal, dose-response replicates (SI Fig 6)",HsProRS; Log[inhibitor] (M) -8.602,1.02E+00 and 1.07E+00 and 9.72E-01
same,"TR-FRET dose-response, normalized signal (SI Fig 11)",HsProRS; Log[inhibitor] (M) -8.602,9.41E-01 and 8.91E-01 and 9.25E-01
same,"normalized TR-FRET ligand displacement signal, dose-response replicates (SI Fig 6)",HsProRS; Log[inhibitor] (M) -9.000,9.71E-01 and 8.87E-01 and 1.00E+00
same,"TR-FRET dose-response, normalized signal (SI Fig 11)",HsProRS; Log[inhibitor] (M) -9.000,9.29E-01 and 9.20E-01 and 9.52E-01
same,"normalized TR-FRET ligand displacement signal, dose-response replicates (SI Fig 6)",HsProRS; Log[inhibitor] (M) -9.301,1.06E+00 and 9.50E-01 and 9.98E-01
same,"TR-FRET dose-response, normalized signal (SI Fig 11)",HsProRS; Log[inhibitor] (M) -9.301,9.00E-01 and 9.10E-01 and 9.03E-01

# Reference: paper PMC9403976, “Elucidating the path to Plasmodium prolyl-tRNA synthetase inhibitors that overcome halofuginone resistance” (Nature Communications, 2022)
